How the values were obtained:
Assay type in all cases: cell-based
[1] = test system: primary hepatocytes isolated from rats; assay: Cell protective effects against doxorubicin in hepatocytes (WST-1 cell viability); settings: Hepatocyte; primary rat hepatocytes pretreated with compound for 30 min, then doxorubicin; viability by WST-1 after 24-48 h
How it was run: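 Rat primary hepatocytes from two-step collagenase perfusion were pretreated for 30 min with compound: 5-step 2- or 3-fold series from 30, 10 or 1 µM, 0.2% DMSO. Doxorubicin or another hepatotoxicant (e.g., CCl4, acetaminophen, H2O2) was then added. Viability after 24–48 h was read by WST-1 (A440), and EC50 was taken as half-maximal protection.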

H9C2 cells = assay: Protective effect when tBHP was treated on cardiac cells (SRB method); settings: Rattus norvegicus, tBHP 400 uM, 2 h, H9C2 cardiomyocytes
Description: In order to determine the protective effect on pancreatic cells, Linm5F cells, a sort of the beta cells, were distributed into the 96-well plate in the amount of 2×10^4 cells/well, and incubated for 24 h. The Example compounds were serially diluted by 3-fold to the final concentration of 30, 10, 3, 1, 0.3, 0.1 uM, by which each well was treated for 1 h. Cells were treated with tBHP at the final concentration of 400 uM, and further incubated for 5 h. Protective effects were determined using SRB (Sulforhodamine B Protein) method in which total amount of cellular protein is stained. Briefly, cells were incubated for 5 h, 50 uL of 4% formaldehyde solution was added to each well to fix the cells, and stored for about 30 min at room temperature. After discarding the media, each well was washed with distilled water 2-3 times, and the plate was dried in an oven at 50°. 50 uL of SRB solution was added to each well, and placed for about 30 min at room temperature. After removing SRB solution, the plate was washed with 1% acetic acid solution 2-3 times. […]
In order to assess the protective effect on cardiac cells, H9C2 cells were distributed in the amount of 1.5×10^4 cells/well, and incubated for 24 h. […] Protective effect of each compound was determined using the same SRB method as in Linm5F of above mentioned 2).

Linm5F cells = assay: Protective effect when tBHP was treated on pancreatic cells (SRB method); settings: Pancreatic beta cell, tBHP 400 uM, 5 h
Description: In order to determine the protective effect on pancreatic cells, Linm5F cells, a sort of the beta cells, were distributed into the 96-well plate in the amount of 2×10^4 cells/well, and incubated for 24 h. The Example compounds were serially diluted by 3-fold to the final concentration of 30, 10, 3, 1, 0.3, 0.1 uM, by which each well was treated for 1 h. Cells were treated with tBHP at the final concentration of 400 uM, and further incubated for 5 h. Protective effects were determined using SRB (Sulforhodamine B Protein) method in which total amount of cellular protein is stained. Briefly, cells were incubated for 5 h, 50 uL of 4% formaldehyde solution was added to each well to fix the cells, and stored for about 30 min at room temperature. After discarding the media, each well was washed with distilled water 2-3 times, and the plate was dried in an oven at 50°. 50 uL of SRB solution was added to each well, and placed for about 30 min at room temperature. After removing SRB solution, the plate was washed with 1% acetic acid solution 2-3 times. After drying the plate in an oven at 50°, 100 uL of 10 mM Tris was added to elute SRB which was staining the intracellular protein.

[2] = test system: primary hepatocytes isolated from rats; assay: Hepatocyte protective effect against substances deriving hepatocyte toxicity (WST-1 cell viability); settings: for EC50: Rattus norvegicus, Hepatocyte, viability after 24-48 h, WST-1; for viability: primary rat hepatocytes
Description: Various endogenous/exogenous attacks on the cells trigger the mechanisms of cell death which is broadly classified into two types, i.e. apoptosis or necrosis. Using these cell death mechanisms, in the present experimental example, primacy hepatocytes isolated from rats were treated with drugs which were clinically shown to result in serious side-effects of hepatocyte toxicity or various chemicals which derive cell death, and the compounds synthesized in the Examples were estimated for their hepatocyte protective effects, after 24-48 h. The substances used to derive hepatocyte death include CCl4, ActD, H2O2, doxorubicin, anti-Fas Ab/Actinomycin D, acetaminophen, EtOH, CdCl2, palmitate, stearate, cyclophosphamide, terfenadine, diclofenac, simvastatin, and adefovir. Primary hepatocytes were isolated using the method of Seglen P O (Experimental Cell Research 74 (1972) pp 450-454). Briefly, hepatocytes were isolated according to the two-step collagenase perfusion method, and dead cells were removed by low speed (500 rpm) centrifugation for 10 min using percoll gradient (Kreamer B L etc, In Vitro Cellular & Developmental Biology 22 (1986) pp 201-211). During this step, the viability of cells was maintained 90% or above. The cells were suspended in HepatoZYME media (Gibco BRL), and the number of cells was counted. 1.5×10^4 cells in 100 μl were placed into the collagen-coated 96-well plate (BD biocoat), and adhered on the bottom for 3-4 h.
In order to assess the hepatocyte protective effect, above adhered cells were pretreated with the Example compounds for 30 min. […] 30 min after the treatment by compounds, cells were treated by the substances deriving hepatocyte death or hepatotoxic drugs at the concentrations indicated in Table 1. After 24-48 h, the viability of cells was determined to estimate the hepatocyte protective effects. The viability of cells was determined using WST-1 (MK-400, […]) method by the absorbance at 440 nm. Hepatocyte protective effects of the Example compounds were represented by “EC50” which was calculated from measured values. “EC50” herein means the concentration of the compound at which 50% of maximum protective effect is observed in the experiment.

SK-N-MC cells = assay: Protective effect when tBHP was treated on brain cells (LDH assay); settings: Homo sapiens, tBHP 400 uM, 6 h
Description: In order to assess the protective effect on brain cells, 2×10^4 brain cells were distributed into the 96-well plate using DMEM media (Gibco, 10% FBS), and incubated for 24 h. The Example compounds were serially diluted by 3-fold to the final concentration of 30, 10, 3, 1, 0.3, 0.1 uM, by which each well was treated for 1 h. Cells were treated with tBHP at the final concentration of 400 uM, and incubated for 6 h. 50 uL of media was taken from each well to proceed with LDH assay (Promega). In LDH assay, 50 uL of media was mixed with 50 uL of assay solution. After the reaction for 30 min at room temperature, absorbance was measured at 490 nm using SpectraMax (Molecular Device).

Compound	EC50 [1]	EC50 (H9C2 cells)	EC50 (Linm5F cells)	EC50 ([2]; simvastatin 16 μM)	EC50 ([2]; terfenadine 10 μM)	viability ([2]; adefovir 100 μM, compound at 3-30 uM)	viability ([2]; diclofenac 350 μM, compound at 3-100 uM)	EC50 (SK-N-MC cells)
O=C(O)C[C@@H]1CSC(c2cc3cc(Oc4ccccc4)cc(NC4CCCC4)c3[nH]2)=N1 [Example 85, [(R)-2-(5-phenoxy-7-cyclopentylamino-1H-indol-2-yl)-4,5-dihydro-thiazol-4-yl]-acetic acid]	400 nM	700 nM						
O=C(O)C[C@H]1CSC(c2cc3cccc(NC4CCCC4)c3[nH]2)=N1 [Example 14, [(S)-2-(7-cyclopentylamino-1H-indol-2-yl)-4,5-dihydro-thiazol-4-yl]-acetic acid]	190 nM		150 nM					
O=C(O)C[C@@H]1CSC(c2cc3cc(Cl)cc(NC4CCCC4)c3[nH]2)=N1 [Example 4, [(R)-2-(5-chloro-7-cyclopentylamino-1H-indol-2-yl)-4,5-dihydro-thiazol-4-yl]-acetic acid]	300 nM			< 10000 nM	400 nM	50%	40%	≤ 100 nM
Cc1cc(NCC2CCOCC2)c2[nH]c(C3=N[C@@H](CC(=O)O)CS3)cc2c1 [Example 22, [(S)-2-(5-methyl-7-(tetrahydropyran-4-yl)methylamino-1H-indol-2-yl)-4,5-dihydro-thiazol-4-yl]-acetic acid]	250 nM	170 nM	200 nM					

Reference: US8222414B2, “Indole compounds as an inhibitor of cellular necrosis” (LG Life Sciences Ltd., priority 2007, dated 2012)
